In PMC12668310, “High‐Throughput Synthesis and Screening of a Cyanimide Library Identifies Selective Inhibitors of ISG15‐Specific Protease mUSP18” (Angewandte Chemie (International Ed. in English), 2025):
Where two headings read alike, the source gives them in different places.

Assays:
[1] = biological target: T1, UCHL1 (Homo sapiens, UniProt P09936); assay: IC50 determination, fluorogenic Ub-Rho-morpholine activity assay; assay type: biochemical; details: for IC50: after 30 min incubation, purified compound
T1 construct: (1-223); made in house
T1 sequence (P09936 1-223): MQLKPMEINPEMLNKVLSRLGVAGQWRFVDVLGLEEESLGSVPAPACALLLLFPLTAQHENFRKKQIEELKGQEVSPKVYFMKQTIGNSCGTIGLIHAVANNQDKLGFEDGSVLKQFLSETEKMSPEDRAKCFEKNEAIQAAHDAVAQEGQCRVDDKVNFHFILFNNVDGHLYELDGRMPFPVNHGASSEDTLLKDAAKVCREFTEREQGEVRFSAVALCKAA

[2] = biological target: T2, UCHL3 (Homo sapiens, UniProt P15374); assay: as above; assay type: biochemical; details: after 30 min incubation; purified compound
T2 construct: (1-230); made in house
T2 sequence (P15374 1-230): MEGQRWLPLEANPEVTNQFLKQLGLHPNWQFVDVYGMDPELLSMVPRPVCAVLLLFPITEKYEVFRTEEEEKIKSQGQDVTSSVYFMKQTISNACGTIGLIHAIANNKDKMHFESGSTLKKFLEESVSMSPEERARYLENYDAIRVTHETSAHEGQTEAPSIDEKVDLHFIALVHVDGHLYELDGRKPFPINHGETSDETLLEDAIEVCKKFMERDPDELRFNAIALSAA

[3] = biological target: T3, USP7 (Homo sapiens, UniProt Q93009); assay: as above; assay type: biochemical; details: after 30 min incubation; purified compound
T3 construct: (1-1102); GST (cleaved yes); made in house
T3 sequence (Q93009 whole entry): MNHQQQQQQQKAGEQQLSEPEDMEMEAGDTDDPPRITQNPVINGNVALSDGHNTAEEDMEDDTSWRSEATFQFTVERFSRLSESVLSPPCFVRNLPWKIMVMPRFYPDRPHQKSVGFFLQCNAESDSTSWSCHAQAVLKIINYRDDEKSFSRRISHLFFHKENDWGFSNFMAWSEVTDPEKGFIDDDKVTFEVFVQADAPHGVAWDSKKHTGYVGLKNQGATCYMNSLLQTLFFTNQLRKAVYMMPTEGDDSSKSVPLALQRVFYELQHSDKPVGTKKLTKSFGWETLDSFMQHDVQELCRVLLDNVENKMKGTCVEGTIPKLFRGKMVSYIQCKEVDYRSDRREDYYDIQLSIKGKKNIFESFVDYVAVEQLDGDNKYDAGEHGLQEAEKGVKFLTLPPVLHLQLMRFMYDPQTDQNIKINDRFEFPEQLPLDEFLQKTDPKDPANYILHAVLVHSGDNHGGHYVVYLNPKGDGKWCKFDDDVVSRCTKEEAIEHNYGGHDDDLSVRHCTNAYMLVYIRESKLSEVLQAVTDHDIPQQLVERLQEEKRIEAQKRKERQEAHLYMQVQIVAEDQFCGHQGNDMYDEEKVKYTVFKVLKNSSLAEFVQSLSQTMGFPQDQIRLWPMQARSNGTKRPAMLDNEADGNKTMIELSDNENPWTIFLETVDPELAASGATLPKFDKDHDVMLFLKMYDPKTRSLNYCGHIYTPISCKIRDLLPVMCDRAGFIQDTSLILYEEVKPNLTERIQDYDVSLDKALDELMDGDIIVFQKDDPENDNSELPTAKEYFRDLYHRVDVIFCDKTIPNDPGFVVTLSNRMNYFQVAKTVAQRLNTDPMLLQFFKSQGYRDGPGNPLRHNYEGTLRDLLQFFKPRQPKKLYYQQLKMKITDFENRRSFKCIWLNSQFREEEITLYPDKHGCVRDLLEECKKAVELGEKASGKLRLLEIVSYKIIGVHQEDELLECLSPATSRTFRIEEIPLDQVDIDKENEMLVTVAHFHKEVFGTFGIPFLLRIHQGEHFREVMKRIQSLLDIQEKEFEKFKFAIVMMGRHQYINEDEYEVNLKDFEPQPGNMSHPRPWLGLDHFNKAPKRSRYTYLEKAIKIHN

[4] = biological target: T4, mUSP18 (Mus musculus, UniProt Q9WTV6); assay: IC50 determination, fluorogenic ISG15CT-Rho-morpholine activity assay; assay type: biochemical, murine; details: after 30 min incubation; purified compound; ISG15CT-Rho-morpholine substrate
T4 construct: (46-368); His-tag (N); made in house
T4 sequence (Q9WTV6 46-368): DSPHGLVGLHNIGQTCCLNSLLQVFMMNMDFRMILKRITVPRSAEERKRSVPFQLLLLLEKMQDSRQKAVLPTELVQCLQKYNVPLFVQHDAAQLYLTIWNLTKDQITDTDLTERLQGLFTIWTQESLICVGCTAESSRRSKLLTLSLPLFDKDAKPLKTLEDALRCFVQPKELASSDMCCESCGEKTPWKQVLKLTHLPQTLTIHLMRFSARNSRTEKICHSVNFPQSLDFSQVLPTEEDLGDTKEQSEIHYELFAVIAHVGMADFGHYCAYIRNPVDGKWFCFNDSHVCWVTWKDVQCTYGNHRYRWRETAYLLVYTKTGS

[5] = biological target: T5, USP32 (Homo sapiens, UniProt Q8NFA0); assay: IC50 determination, fluorogenic Ub-Rho-morpholine activity assay; assay type: biochemical; details: after 30 min incubation; purified compound
T5 construct: (1-1604); His-tag (N); made in house
T5 sequence (Q8NFA0 whole entry): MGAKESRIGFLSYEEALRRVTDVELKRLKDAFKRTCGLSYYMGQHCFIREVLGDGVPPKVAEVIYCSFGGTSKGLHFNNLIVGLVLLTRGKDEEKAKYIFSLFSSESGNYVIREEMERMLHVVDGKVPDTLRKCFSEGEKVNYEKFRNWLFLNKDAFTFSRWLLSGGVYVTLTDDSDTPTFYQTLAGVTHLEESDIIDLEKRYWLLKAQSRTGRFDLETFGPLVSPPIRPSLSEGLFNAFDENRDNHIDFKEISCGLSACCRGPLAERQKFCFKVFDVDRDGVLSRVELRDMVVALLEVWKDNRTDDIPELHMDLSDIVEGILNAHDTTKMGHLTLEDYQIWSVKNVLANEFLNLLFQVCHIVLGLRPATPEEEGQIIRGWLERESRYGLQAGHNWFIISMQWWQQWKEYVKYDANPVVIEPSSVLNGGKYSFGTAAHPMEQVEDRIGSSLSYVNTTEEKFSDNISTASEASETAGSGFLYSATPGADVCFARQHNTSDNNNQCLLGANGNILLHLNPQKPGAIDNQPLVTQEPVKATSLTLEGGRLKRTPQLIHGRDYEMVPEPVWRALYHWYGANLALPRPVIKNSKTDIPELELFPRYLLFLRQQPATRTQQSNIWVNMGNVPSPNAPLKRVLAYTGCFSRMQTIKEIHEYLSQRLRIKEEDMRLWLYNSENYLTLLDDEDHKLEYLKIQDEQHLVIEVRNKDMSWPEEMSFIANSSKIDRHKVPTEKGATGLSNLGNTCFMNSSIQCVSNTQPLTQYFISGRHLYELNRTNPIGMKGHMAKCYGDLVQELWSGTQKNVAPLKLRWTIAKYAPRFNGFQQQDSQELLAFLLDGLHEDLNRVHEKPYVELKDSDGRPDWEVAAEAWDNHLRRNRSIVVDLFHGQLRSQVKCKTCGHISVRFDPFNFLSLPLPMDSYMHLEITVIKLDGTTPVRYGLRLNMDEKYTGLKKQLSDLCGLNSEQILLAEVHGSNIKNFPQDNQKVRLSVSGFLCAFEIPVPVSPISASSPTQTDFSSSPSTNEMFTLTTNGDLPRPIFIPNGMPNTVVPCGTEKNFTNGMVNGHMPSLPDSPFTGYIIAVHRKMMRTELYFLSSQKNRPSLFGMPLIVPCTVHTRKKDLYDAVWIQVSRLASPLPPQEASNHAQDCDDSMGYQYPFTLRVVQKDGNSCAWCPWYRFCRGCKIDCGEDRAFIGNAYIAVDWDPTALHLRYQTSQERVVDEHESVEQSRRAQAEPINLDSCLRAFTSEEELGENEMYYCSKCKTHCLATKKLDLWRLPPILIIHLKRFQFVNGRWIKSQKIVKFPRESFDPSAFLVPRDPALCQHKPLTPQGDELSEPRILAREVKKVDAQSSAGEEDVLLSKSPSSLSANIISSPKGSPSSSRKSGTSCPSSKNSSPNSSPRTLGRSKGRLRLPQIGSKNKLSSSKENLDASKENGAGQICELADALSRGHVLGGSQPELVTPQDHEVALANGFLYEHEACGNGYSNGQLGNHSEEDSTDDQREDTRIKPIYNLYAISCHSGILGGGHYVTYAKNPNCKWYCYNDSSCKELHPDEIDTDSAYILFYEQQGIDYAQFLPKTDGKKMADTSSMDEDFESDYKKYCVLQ

[6] = biological target: USP16 (Homo sapiens, UniProt Q9Y5T5); assay: biochemical
Sequence of USP16 (Q9Y5T5 22-823): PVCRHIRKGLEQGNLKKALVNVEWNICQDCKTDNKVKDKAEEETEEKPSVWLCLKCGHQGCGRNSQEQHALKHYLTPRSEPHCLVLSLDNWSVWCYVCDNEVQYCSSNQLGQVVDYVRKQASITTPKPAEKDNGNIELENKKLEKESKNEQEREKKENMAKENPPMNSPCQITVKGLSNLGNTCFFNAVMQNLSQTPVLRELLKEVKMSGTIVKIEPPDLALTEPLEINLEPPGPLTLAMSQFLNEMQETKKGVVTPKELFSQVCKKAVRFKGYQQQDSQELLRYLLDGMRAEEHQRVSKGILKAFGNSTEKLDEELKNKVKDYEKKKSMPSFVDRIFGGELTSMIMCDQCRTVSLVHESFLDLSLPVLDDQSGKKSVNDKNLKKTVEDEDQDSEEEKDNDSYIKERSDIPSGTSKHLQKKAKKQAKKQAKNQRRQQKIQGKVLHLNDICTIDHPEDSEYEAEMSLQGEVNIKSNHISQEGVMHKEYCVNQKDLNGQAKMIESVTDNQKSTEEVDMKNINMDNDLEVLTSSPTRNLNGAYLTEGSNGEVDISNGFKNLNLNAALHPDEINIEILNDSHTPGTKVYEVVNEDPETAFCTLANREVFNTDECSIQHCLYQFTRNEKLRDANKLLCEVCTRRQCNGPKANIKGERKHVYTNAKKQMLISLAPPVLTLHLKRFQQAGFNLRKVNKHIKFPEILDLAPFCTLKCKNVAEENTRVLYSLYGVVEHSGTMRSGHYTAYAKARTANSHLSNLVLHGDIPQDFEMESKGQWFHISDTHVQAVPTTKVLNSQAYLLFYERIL
Experimental: This panel included five proteases from the USP family, two from the UCH family, and one OTU. The IC50 values were determined in a well‐established biochemical activity assay using the fluorogenic substrate Ub‐Rho‐morpholine.^[ [33] ^]
(§1) Enzymes were pre-incubated with a concentration series of the compounds for 30 minutes at
(§2) room temperature, before addition of the substrate and direct read-out by fluorescence
(§3) intensity. Data is presented as mean ± SD, n=3.
USP16 Full length N-terminal His-tag Q9Y5T5 In-house, [Mons, 2 nM
IC50 and kinact/KI determination
(§4) The assays were performed at room temperature in “nonbinding surface flat bottom low flange”
(§5) TrisꞏHCl, 100 mM NaCl, pH 7.6, 2.0 mM cysteine, 1 mg/mL 3-[(3-cholamidopropyl)-
(§6) dimethylammonio]propanesulfonic acid (CHAPS), and 0.5 mg/mL γ-globulins from bovine
(§7) blood (BGG). […] The compounds were dissolved in 10
(§8) mM DMSO stocks, and appropriate volumes were transferred to the empty plates using a
(§9) Labcyte Echo550 acoustic dispenser. A DMSO back-fill was performed to obtain equal volumes of DMSO (400 μL) in each well. N-ethylmaleimide (NEM, 10 mM) was used a positive
(§10) steps were performed on a Biotek MultiflowFX liquid dispenser. A 10 μL portion of buffer was added and the plate was vigorously shaken for 20s. Next, 5 μL of recombinant enzyme (4x final concentration) was added followed by incubation for 1h. A 5 μL portion of the substrate
(§11) (Ub-RhoMP[2] for all DUBs, ISG15ct-RhoMP (vide supra) for USP18 and Z-FR-AMC [Bachem,
(§12) RhoMP, 10 µM for Z-FR-AMC), and the increase in fluorescence over time was recorded using
(§13) excitation 360 nm, emission 450 nm for AMC). The initial enzyme velocities were calculated
(§14) from the slopes, normalized to the positive and negative controls, and plotted against the
(§15) inhibitor concentrations using the built-in equation “[inhibitor] vs response − variable slope
(§16) (four parameters), least-squares fit” with constraints “Bottom = 0” and “Top = 100” in GraphPad
(§17) Prism 7 software to obtain the IC50 values.
(§18) All data fitting and calculations were done using GraphPad Prism 7 software.

[7] = biological target: T6, USP30 (Homo sapiens, UniProt Q70CQ3); assay: biochemical
T6 sequence (Q70CQ3 57-517): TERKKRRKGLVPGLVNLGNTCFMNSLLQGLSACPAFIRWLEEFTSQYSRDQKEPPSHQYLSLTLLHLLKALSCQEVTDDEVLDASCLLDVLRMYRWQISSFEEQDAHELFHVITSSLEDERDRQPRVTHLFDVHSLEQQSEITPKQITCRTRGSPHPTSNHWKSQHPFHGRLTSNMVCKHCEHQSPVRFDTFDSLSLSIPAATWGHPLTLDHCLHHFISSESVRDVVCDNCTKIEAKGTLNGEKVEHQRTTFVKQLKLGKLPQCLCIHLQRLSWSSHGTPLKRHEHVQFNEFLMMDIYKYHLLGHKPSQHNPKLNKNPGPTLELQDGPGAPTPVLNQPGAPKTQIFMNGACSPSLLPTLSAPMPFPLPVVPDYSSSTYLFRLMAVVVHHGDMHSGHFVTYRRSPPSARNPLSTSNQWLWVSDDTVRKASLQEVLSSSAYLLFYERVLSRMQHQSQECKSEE
Experimental: This panel included five proteases from the USP family, two from the UCH family, and one OTU. The IC50 values were determined in a well‐established biochemical activity assay using the fluorogenic substrate Ub‐Rho‐morpholine.^[ [33] ^] For USP18, which is unreactive to Ub but specific for ISG15, we used the ISG15CT‐Rho‐morpholine (consisting of the C‐terminal domain of ISG15) substrate to monitor its activity (see Supporting Information for preparation of this substrate).
as §1, §2, §3
room temperature, followed by the addition of substrate and direct read-out by fluorescence
IC50 and kinact/KI determination
as §4, §5, §6, §7, §8, §9, §10, §11, §12, §13, §14, §15, §16, §17, §18

[8] = biological target: T4, mUSP18; assay: High-throughput screening, ISG15ct-RhoMP, single dose 1.25 µM; assay type: biochemical, murine; details: mUSP18 %inhibition
[9] = carboxylic acid (CA) building block alone, read-out: %inh CA only
[10] = carboxylic acid (CA) with coupling reagents DIC/HOBT, read-out: %inh CA + DIC/HOBT

SMILES	inhibition at 1.25 µM [8, 9]	inhibition at 1.25 µM [8, 10]	also measured
N#CN1CC[C@@H](NC(=O)c2ccc(F)c(F)c2)C1 [Compound 4]	–	–	IC50 [1]: > 200 µM; IC50 [2]: > 200 µM; IC50 [3]: 210 µM; IC50 [4]: 9.8 µM; IC50 [5]: 184 µM; IC50 [6]: 262 µM; IC50 [7]: 0.89 µM
N#CN1CC[C@@H](NC(=O)c2ccc(N3CCCC3)cc2F)C1 [Compound 3]	–	–	IC50 [1]: > 200 µM; IC50 [2]: > 200 µM; IC50 [3]: 171 µM; IC50 [4]: 5.5 µM; IC50 [5]: 59 µM; IC50 [6]: > 200 µM; IC50 [7]: 2.4 µM
N#CN1CC[C@H](C(=O)Nc2ncc(N3CCOCC3)s2)C1 [Compound 5]	–	–	less potency toward USP18 and USP30 compared with UCHL1 ([1]; ratio of IC50 values): 20–40 fold; IC50 [2]: > 200 µM; IC50 [4]: 5.1 µM; IC50 [5]: 242 µM
COc1ccccc1-c1cc(C(=O)N[C@@H]2CCN(C#N)C2)n[nH]1 [Compound 2]	–	–	IC50 [1]: 110 µM; IC50 [2]: 168 µM; IC50 [3]: 52 µM; IC50 [4]: 0.029 µM; IC50 [5]: 0.072 µM; IC50 [6]: 22.6 µM; IC50 [7]: 0.059 µM
O=C(O)Cc1ccc([N+](=O)[O-])cc1 [CA012]	-3.85%	-8.78%	–
O=C(O)c1cccc(-c2ncn[nH]2)c1 [CA215]	8.13%	1.55%	–
CCn1cc(S(=O)(=O)N2CCC(C(=O)O)CC2)cn1 [CA122]	11.4%	5.98%	–
Cc1ccc(NS(=O)(=O)c2cccc(C(=O)O)c2)cc1 [CA115]	21.2%	6.11%	–
O=C(O)c1ccc(Oc2cccc(Cl)c2Cl)nn1 [CA144]	10.8%	12.9%	–
O=C(O)CCCCBr [CA023]	-5.49%	-14.3%	–
O=C(O)C(Cc1c[nH]cn1)NS(=O)(=O)c1ccc(Cl)cc1 (stereo not shown) [CA091]	20.4%	8.3%	–
O=C(O)c1snnc1-c1ccc(Br)cc1 [CA126]	9.01%	10.8%	–
O=C(O)[1C@@H]1CCO[1C@H]1c1ccccc1 [CA123]	12.2%	8.31%	–

Continued, in another order:

inhibition at 1.25 µM [8, 9]	inhibition at 1.25 µM [8, 10]	SMILES	also measured
2%	4.68%	O=C(O)CC1=NN(c2cccc(Cl)c2)C(=O)C1 [CA345]	–
-0.24%	-1.16%	Cc1ccc(CN2C(=O)CCC2C(=O)O)cc1 (stereo not shown) [CA337]	–
-0.33%	-1.15%	O=C(O)C(CCc1ccccc1)c1ccccc1 (stereo not shown) [CA462]	–
-2.55%	-9.97%	CN(C)S(=O)(=O)c1ccc(N2CCCCC2)c(C(=O)O)c1 [CA379]	–
-2.23%	-2.33%	O=C(O)c1ccc(-c2ncon2)cc1 [CA461]	–
4.85%	6.81%	Cc1ccc(-c2cc(C(=O)O)n[nH]2)s1 [CA249]	–
